Key:
β-cells [1] = assay: Preserving β-cell function of mice challenged by one shot of streptozotocin; assay type: in vivo; conditions: oral or intraperitoneal, prior and during 5 days following streptozotocin 45 mg/kg i.p.
Procedure: Further, compounds of the present invention, such as Salnacedin, are tested for their efficiency at preserving β-cell function of mice challenged by one shot of streptozotocin (45 mg/kg i.p.).

ob/ob and db/db mice = assay: Restoration of insulin sensibility in ob/ob and db/db mice; assay type: in vivo
Procedure: Eight week old ob/ob and db/db mice are treated for 3 to 4 weeks with a daily dose of 250 mg/kg of a compound of the present invention, such as […], by oral gavage or with drug mix with food or subcutaneously. […] Additionally, the levels of insulin are measured 15 min following the glucose loading to determine the capacity of the β-cells to secrete insulin.

β-cells [2] = assay: Protection of β-cell failure and prevention of hyperglycemia in streptozotocin treated rats; assay type: in vivo
[3] = tested on: streptozotocin-induced diabetic mice; assay: Type 1 diabetic model in mice (streptozotocin 120 mg/kg i.p.); assay type: in vivo; conditions: 4 weeks
Procedure: Mice induced by streptozotocin injection (120 mg/kg i.p.) are treated for 4 weeks with 250 mg/kg/day (oral or i.p.) of a compound of the present invention, such as […]. At the end of the 4 week treatment, fasting glucose, fructosamine, triglycerides and cholesterol are measured.

[4] = tested on: Zucker diabetic fatty (ZDF) rats; assay: Restoration of insulin sensitivity in Zucker diabetic fatty (ZDF) rats; assay type: in vivo; conditions: 250 mg/kg oral daily
Procedure: To assess whether conjugates comprising an antioxidant agent and an inflammatory agent would prevent glucose toxicity and progression of diabetes mellitus associated with β-cell failure overtime, we assessed whether compounds of Formula (I), including salnacedin, would alter the development of the disease in this Type 2 diabetic animal model.
Zucker diabetic rats from 6 to 12 weeks of age are treated daily with an oral dose of 250 mg/kg of a compound of the present invention, such as salnacedin.

[5] = tested on: animal models of diabetes; assay: Summary of effects in different animal models of diabetes; assay type: in vivo
β-cells [6] = assay: In vivo beta cell protection model (alloxan), FIG. 6; design: species or system cd-1 mice; conditions: for effect of alloxan on β-cells: lysine salts, single i.p. administration 1 hour before alloxan 200 mg/kg
Procedure: Beta-cell destruction was induced in cd-1 mice after 3 hours of fasting by a single intraperitoneal injection of a freshly prepared solution of alloxan 200 mg/kg (Sigma-Aldrich, San Luis, Mo.) that was dissolved in NaCl 0.9%. Single intraperitoneal drug administration was 1 hour before the alloxan administration. Animals received the different drugs dissolved in PBS pH 7.4, and the animals that not received any drug were injected with the vehicle, in this case PBS pH 7.4. At the end of the treatment, at day 4, animals were killed and the plasma collected and kept at −20° C. until used.
The circulating glucose concentration was determined by a rapid glucose analyzer (Accu-Chek Aviva; Roche). Plasma triglycerides and non esterified fatty acids were determined with standard colorimetric methods (Biosystems, Barcelona, Spain, and Wako Chemicals, Neuss, Germany, respectively). Plasma insulin concentration was determined by enzyme-linked immunosorbent assay method (CrystalChem, Downers Grove, Ill.).

[7] = tested on: Zucker fa/fa rats or ob/ob mice; conditions: 120 mg/kg/day subcutaneous infusion, 3-4 weeks; cited from earlier work
human diabetic patients = conditions: 4.5 g/day; cited from earlier work
IKKβ = conditions: diabetic animals; cited from earlier work
[8] = 250 mg/kg/day oral or i.p., vs control group

With `CC(=O)N[C@@H](CSC(=O)c1ccccc1O)C(=O)O` [Example 1, (R)-2-acetamido-3-(2-hydroxybenzoylthio)propanoic acid] the “β-cell protection from oxidative stress and development of hyperglycemia over time” value (β-cells [1]) was “protects β-cells from oxidative stress and reduces the development of hyperglycemia over time compared to control”, the “fasting blood glucose values” (ob/ob and db/db mice; 250 mg/kg daily, 3 to 4 weeks, oral gavage, in food or subcutaneously, vs control or salicylate/antioxidant alone) was “reduced compared to the control group” and the insulin sensitivity (ob/ob and db/db mice; evidenced by a sustained and pronounced glucose lowering effect) was “improve insulin sensitivity”. The “capacity of the β-cells to secrete insulin” value (ob/ob and db/db mice; insulin measured 15 min following the glucose loading, vs control) was “greater”, the “oxidative stress and lipid peroxidation (8 OhdG, malondialdehyde, 4HNE)” value (ob/ob and db/db mice; level of associated biomarkers) was “a reduction in oxidative stress and lipid peroxidation” and the “levels of glutathione (GSH)” value (ob/ob and db/db mice; liver and kidney) was “restored”. For the same molecule, the “inflammatory cytokines TNFα and IL-6” value (ob/ob and db/db mice; mouse, in vivo) was “reduced”, the “glucose tolerance test (OGTT or IPTT): elevation of glucose levels” value (ob/ob and db/db mice; vs non treated animal) was “a reduction in the elevation of glucose levels during the test” and the blood glucose level (β-cells [2]; pretreated rats vs control group, associated with preserved capacity of β-cell to secrete insulin) was “lower than the control group”. The “β-cell preservation and development of hyperglycemia” value (β-cells [2]; rats, ~250 mg/kg orally and/or intraperitoneally prior to streptozotocin 45 mg/kg i.p., followed by 4 additional treatment days) was “preserve β-cells, reducing the development of hyperglycemia”, the “levels of 8-hydroxy-deoxyguanosine (8 OhdG) and malondialdehyde+4-hydroxy-2-nonenal (4HNE)” value (β-cells [2]; streptozotocin model, markers of oxidative stress and lipid peroxidation in the blood) was “reduce” and the cholesterol [3, 8] was “reduced in comparison to control group”. The fasting glucose [3, 8] was “reduced in comparison to control group”, the fructosamine [3, 8] was “reduced in comparison to control group” and the triglycerides [3, 8] was “reduced in comparison to control group”. For the same molecule, the “reduction in plasmatic parameters compared with a salicylate or an antioxidant alone” value ([3]; 250 mg/kg/day, vs salicylic acid alone or N-acetylcysteine alone) was “more pronounced”, the Hb1Ac ([4]; 6 weeks, vs control group) was “reduced in comparison to the control group” and the cholesterol ([4]; 6 weeks, vs control group) was “reduced in comparison to the control group”. For the same molecule, the fasting glucose ([4]; 6 weeks, vs control group) was “reduced in comparison to the control group”, the fructosamine ([4]; 6 weeks, vs control group) was “reduced in comparison to the control group” and the triglycerides ([4]; 6 weeks, vs control group) was “reduced in comparison to the control group”. The glucose tolerance test ([4]; from 6 to 12 weeks of age) was “improves the glucose tolerance test”, the “insulin secretion from β-cells” value ([4]; from 6 to 12 weeks of age) was “preserves insulin secretion from β-cells” and the worsening of hyperglycemia ([4]; from 6 to 12 weeks of age) was “partially prevents the worsening of hyperglycemia”. The “hypolipidemic, anti-diabetic and antioxidant effects” value [5] was “strong hypolipidemic and anti-diabetic effects as well as antioxidant properties” and the insulin levels (β-cells [6]; alloxan-treated animals, indicates pancreatic beta cell protection) was “preservation of insulin levels”.
For `CC(=O)NC(CSC(=O)c1ccccc1O)C(=O)O` (stereo not shown) [GMC-1.3a, salicylic acid-(L) N-acetyl cysteine], the “effect of alloxan on β-cells” value (β-cells [6]) was “reduce the effect of alloxan on β-cells”.
In the case of `CC(=O)N[C@@H](CSC(=O)c1cc(-c2ccc(F)cc2F)ccc1O)C(=O)O` [GMC-1.3b, diflunisal-(L) N-acetyl cysteine], the “effect of alloxan on β-cells” value (β-cells [6]) is reported as “reduce the effect of alloxan on β-cells”.
In the case of `O=C(O)c1ccccc1O` [Salicylate], the fasting blood glucose [7] is listed as “reduction in fasting blood glucose” and the glucose tolerance [7] is listed as “glucose tolerance improvement”.
In the case of `O=C(Oc1ccccc1C(=O)O)c1ccccc1O` [salsalate], the “effects in human diabetic patients” value (human diabetic patients) is listed as “Beneficial effects”, the “side effects, such as tinnitus, enhanced by” value (human diabetic patients) is listed as 66% and the IKKβ activity (IKKβ) is listed as “decrease in IKKβ activity”. For the same molecule, the insulin sensitivity (IKKβ) was “improvement in insulin sensitivity”.

From US20130281413A1, “Salicylate Conjugates Useful For Treating Metabolic Disorders” (Genmedica Therapeutics SL, priority 2008, published 2013)
